Source: patent US20250186404A1, “METHODS OF USING A (THIAZOLYL)BENZENESULFONAMIDE DERIVATIVE” (Cyteir Therapeutics, Inc., priority 2023, published 2025)

Experiments:
Human MCT2 = target: T1, Human MCT2 (Homo sapiens, UniProt O60669); test: Inhibition of 3BP import (rescue of viability) in MCT2-overexpressing INS-1 cells; assay type: cell-based; conditions: INS-1 cells over-expressing human MCT2, rescue from LC100 3BP
T1 construct: expressed in transfected cells
T1 sequence (O60669 1-478): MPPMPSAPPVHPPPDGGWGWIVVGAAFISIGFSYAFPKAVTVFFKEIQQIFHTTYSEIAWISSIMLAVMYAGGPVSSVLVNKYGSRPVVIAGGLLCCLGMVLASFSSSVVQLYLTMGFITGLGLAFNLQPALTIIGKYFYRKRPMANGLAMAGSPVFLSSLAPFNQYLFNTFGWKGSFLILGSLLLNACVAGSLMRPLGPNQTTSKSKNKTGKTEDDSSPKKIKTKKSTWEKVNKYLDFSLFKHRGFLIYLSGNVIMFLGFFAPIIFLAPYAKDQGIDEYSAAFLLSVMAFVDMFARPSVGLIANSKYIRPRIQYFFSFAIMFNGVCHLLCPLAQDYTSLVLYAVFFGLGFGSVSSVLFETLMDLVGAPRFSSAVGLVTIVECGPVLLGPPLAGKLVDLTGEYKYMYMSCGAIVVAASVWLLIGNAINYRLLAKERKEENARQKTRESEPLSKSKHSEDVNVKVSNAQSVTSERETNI
Procedure: (§1) Human MCT1-4 were stably expressed in INS-1 rat pancreatic islet B-cells, which are deficient in endogenous MCT expression. 3-Bromopyruvate (3BP), a highly reactive and cytotoxic monocarboxylate, can enter the INS-1 cells via the overexpressed MCT isoform, resulting in rapid cell death. However, prevention of 3BP transport into the cell by an MCT inhibitor can prevent 3BP-mediated cell death (FIG. 16).
(§2) INS-1 cells over-expressing an MCT paralog were treated with a titration of 3BP to determine the lowest concentration that results in 100% cell killing (LC100). The INS-1 cells were then pre-treated with a titration of Compound 67A before exposure to the LC100 concentration of 3BP specific for that MCT-over-expressing cell line, and rescue of cell viability was measured (FIG. 17).

Human MCT4 = target: T2, Human MCT4 (Homo sapiens, UniProt O15427); test: Inhibition of 3BP import (rescue of viability) in MCT4-overexpressing INS-1 cells; assay type: cell-based; conditions: INS-1 cells over-expressing human MCT4, rescue from LC100 3BP
T2 construct: expressed in transfected cells
T2 sequence (O15427 2-465 limits assumed): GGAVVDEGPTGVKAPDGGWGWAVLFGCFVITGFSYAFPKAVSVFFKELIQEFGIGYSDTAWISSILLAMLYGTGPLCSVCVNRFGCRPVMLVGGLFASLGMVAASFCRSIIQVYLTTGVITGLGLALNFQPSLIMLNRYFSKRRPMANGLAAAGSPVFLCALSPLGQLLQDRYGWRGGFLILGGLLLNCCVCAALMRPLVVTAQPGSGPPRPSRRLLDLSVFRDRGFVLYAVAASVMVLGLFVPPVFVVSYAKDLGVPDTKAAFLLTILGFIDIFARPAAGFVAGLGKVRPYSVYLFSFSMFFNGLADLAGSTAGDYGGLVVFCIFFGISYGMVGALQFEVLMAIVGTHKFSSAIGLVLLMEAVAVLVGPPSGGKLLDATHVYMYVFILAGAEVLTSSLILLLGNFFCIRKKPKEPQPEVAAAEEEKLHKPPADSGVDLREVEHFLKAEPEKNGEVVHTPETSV
T2 sequence (P26453 23-388 partner): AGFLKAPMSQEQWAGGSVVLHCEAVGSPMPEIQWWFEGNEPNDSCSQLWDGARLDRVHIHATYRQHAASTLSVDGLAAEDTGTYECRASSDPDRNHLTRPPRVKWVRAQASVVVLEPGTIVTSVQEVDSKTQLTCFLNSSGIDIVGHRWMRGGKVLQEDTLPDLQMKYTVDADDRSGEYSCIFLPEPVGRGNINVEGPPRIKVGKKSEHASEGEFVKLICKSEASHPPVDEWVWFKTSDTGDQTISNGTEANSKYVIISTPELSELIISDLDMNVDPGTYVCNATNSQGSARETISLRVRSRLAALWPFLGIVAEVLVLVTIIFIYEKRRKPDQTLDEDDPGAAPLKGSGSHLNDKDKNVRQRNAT
Procedure: as §1, §2

[1] = system: ES2 ovarian cancer cell line; test: ES2 cytotoxicity (Cytotox Green) and cell viability (CellTiterGlo, NCI method); assay type: cell-based
Procedure: MCT4 was over-expressed in ES2 cells following lentiviral transduction. Cell viability was assessed in empty vector (EV) control and MCT4 over-expressing cells after Compound 67A treatment and relative cell growth was quantified using the NCI method (FIG. 10).
The ES2 ovarian cancer cell line was treated with a titration of Compound 67A, and cytotoxicity was assessed after 24 hours of treatment with Cytotox Green and cell viability after 96 hours with CellTiterGlo (FIG. 18).

[2] = system: Daudi (Burkitt Lymphoma) cells; test: Intracellular Lactate Accumulation Assay (Lactate-Glo); assay type: cell-based, human
Procedure: Intracellular lactate accumulation after a 2 h treatment with compounds of the present invention was measured in Daudi (Burkitt Lymphoma) cells using the Lactate-Glo Assay (Promega).
Daudi cells were seeded at 7,500 cells per well in 150 μL of growth medium (RPMI-1640 with 2 mM GlutaMAX+10% FBS) in clear, 96-well, flat-bottom microplates, and incubated overnight (37° C., 5% CO2). Compounds of the present invention were added using an INTEGRA VIAFLO 96 (8 point, 3-fold serial dilution, top concentration 1, 10, or 20 μM, 0.4% final DMSO concentration). After a 2 h incubation (37° C., 5% CO2) microplates containing cells were washed twice with 150 μL ice-cold PBS, resuspended in 25 μL ice-cold PBS containing 12.5 μL 0.6N HCl, and placed on a microplate shaker for 5 min to lyse the cells. Following lysis, 12.5 μL 1M Trizma base was added to neutralize the suspension, and microplates were returned to the microplate shaker for 1 min. Plates were sealed and stored at −20° C. until further processing. On the day of the assay, microplates were thawed for 45 min at room temperate and 50 μL Lactate Detection Reagent (prepared as specified by manufacturer) was added to each well. Microplates were placed on a plate shaker for 1 min and incubated at room temperature for 1 h. Luminescence was measured using a BioTek Cytation 5 Multi-Mode Reader. Curve fitting and calculation of EC50 was performed using GraphPad Prism.
In addition, Daudi human lymphoma cells were treated with a titration of Compound 67A for 4 h, then intracellular lactate was measured via LactateGlo (FIG. 2). Compound 67A treatment elevates intracellular lactate (FIGS. 3-5). […] Inhibiting MCT function in glycolytic cancer cells leads to an accumulation of intracellular lactate that impairs glycolysis and inhibits tumor cell growth, thereby making MCTs an attractive target for cancer therapy. Compound 67A inhibits the import of MCT ligands into cells, and induces dose-dependent intracellular lactate accumulation that correlates with cytotoxicity. MCT4 expression inversely correlates with lactate accumulation and the extent of Compound 67A cytotoxicity in cells.

Pfeiffer = test: Compound 67A sensitivity of CRISPR screen cell line Pfeiffer; assay type: cell-based; conditions: Homo sapiens, Lymphoma
From the text: Three cell lines with varying sensitivities to Compound 67A were utilized in the CRISPR screen (Table 3, FIG. 11).

Row | Compound | IC50 (Human MCT2) | IC50 (Human MCT4) | cytotoxic response ([1]; ES2, Cytotox Green after 24 hours and CellTiterGlo after 96 hours) | effect of MCT4 over-expression on anti-proliferative effects ([1]; ES2 MCT4 over-expressing vs empty vector control, NCI method) | IC50 ([2]; Daudi human lymphoma cells, 4 h treatment, LactateGlo, read-out: induces lactate accumulation, IC50) | EC50 ([2]; Homo sapiens, Daudi cells, 2 h treatment, intracellular lactate accumulation, read-out: LactateGlo EC50) | IC50 (Pfeiffer)
1 | AZD3965 | 1000 to 10000 nM | > 33000 nM |  |  |  |  | 
2 | O=C(Nc1ccccc1C(=O)O)c1cc(S(=O)(=O)c2ccccc2)ccc1Cl [BAY8002] | 1000 to 10000 nM | > 33000 nM |  |  |  |  | 
3 | CC(C)OC(=O)Nc1ccc(-c2cnc([C@H]3CC[C@H](NC(=O)OC(C)C)CC3)s2)c(S(=O)(=O)NC(C)(C)C)c1 [Compound 67A] | > 33000 nM | 1000 to 10000 nM | induced a clear cytotoxic response | significantly reduced Compound 67A-mediated anti-proliferative effects | 370 nM | 150 to 1000 nM | 520 nM
